Consider one compound from patent US12336977B2, “Nitenin analogue compounds and their use in the treatment of chronic and acute pain” (SEA4US-BIOTECNOLOGIA E RECURSOS MARINHOS, LDA., priority 2019, dated 2025).

The target in one data set is T1, hKv1.6 (Homo sapiens, UniProt P17658).
T1 construct: expressed in transfected cells; host or cells: CHO-K1
The data set is described as follows: voltage-clamp of K+ currents in CHO-K1 cells expressing hKv1.6. The class given is cell-based. The source says:
As measure of Ifast, peak current was used, whereas, as a measure of Islow, the current value was obtained at the end of the command pulse (see FIG. 1). Values are expressed as mean±S.E.M. For Islow, a dual phase relationship can be observed. […] Kv1.3 channel is the most sensitive channel (around 6-fold more sensitive in comparison to the “next most sensitive one”, the Kv1.2) Kv1.2, Kv1.1 and Kv1.6 show similar, intermediate sensitivities to nitenin. In opposition, Kv1.4 is the less sensitive (˜31 times less sensitive).
Additionally, drug sensitivity to different voltage-activated channels was assessed by studying the drug effect on currents recorded from chinese hamster ovary (CHO) cells stably transfected with different human Kv channel subunits (Kv1.1, Kv1.2, Kv1.3, Kv1.4 and Kv1.6).
The higher sensitivity of nitenin to Islow (rather than Ifast) and the nature of the nitenin sensitive current (see nitenin sensitive current in FIG. 1.b) urged to understand which K^+ channel(s) do underline Islow. By considering which Kv channel subunits are known to be expressed in DRG, and the biophysical nature of the nitenin-sensitive current, nitenin was tested on whole-cell currents recorded from CHO cells expressing hKv1.1, hKv1.2, hKv1.3, hKv1.4 and hKv1.6. […] Current inhibition was measured at the end of the 1000 ms pulse.

Another data set relates to anesthetized Wistar rats. The data set is described as follows: in vivo ECG recordings of anesthetized Wistar rats. Set-up: species or system rat. As to conditions: intravenous 60 μg/Kg.
In a further data set the test system is CIPN rats (paclitaxel). The data set is described as follows: chemotherapy-induced peripheral neuropathy rat model CIPN, von Frey filaments. Format: in vivo. Particulars: I.V.; 42 days after paclitaxel. As for the experimental part:
[…]
(§1) For efficacy studies, nociception was assessed in all animals from all pain models by regular behavioural monitoring, by quantifying the sensitivity to mechanical stimuli with Von Frey filaments, and consequently reflecting hyperalgesia when hypersensitive. […] Intraperitoneal administration was tested in CFA rats (23 days after CFA injection), with 10 times the nitenin quantity administered by I.V. injections. […] Oral administration of nitenin through stomach gavages (endogastric), with 100 times the quantity administered by I.V. injections, was tested in CCI rats (31 days after surgery). […]

Data set [1] concerns slow currents from large diameter DRG neurons. The data set is described as follows: slow currents of large diameter DRG neurons. Format: cell-based, rat. Particulars: relative to sdDRGNs. The source says:
The K^+ currents affected by the identified compounds, recorded from sdDRGNs (and sdTGNs) by whole-cell voltage-clamp techniques, were object of intensive research by the applicant in the area of pain neurophysiology. The use of rat pain models was fundamental to perform previous target validation, i.e., to determine the K^+ current component differentially expressed in pain conditions. […] The nature of the recorded modulatory effect on the currents was studied by monitoring several biophysical parameters, such as voltage dependencies of activation and inactivation and kinetics. The specificity of the bioactivity was carried out by comparing the pharmacological effect on currents recorded from the sdDRGNs with those in other types of dorsal root ganglia (medium and large diameter DGRs).
Lastly, regarding specificity, it is important to note that the slow currents obtained from large diameter DRG neurons are around 10 times less sensitive to nitenin.

Data set [2] relates to COP rats (CFA injection in the whisker pad of Wistar rats). Put plainly: chronic orofacial pain (COP) rat model, von Frey filaments. Format: in vivo. Particulars: I.V. 1 μg/mL of blood.
Description: Values refer to the mechanical sensitivity to face stimulation (whiskers region) using calibrated von Frey Filaments, and consequently reflecting hyperalgesia when hypersensitive (black filled markers—ipsilateral, injured face-side; Open markers—contralateral, uninjured face-side). Dotted line refers to the average value of the ipsilateral face prior to the CFA injection. a) Induction of the model showing that 3 days after operation, the mechanical sensitivity of the ipsilateral face-sides increase markedly, whereas the one associated with the contralateral leg maintains relatively unchanged, similar to baseline values. […]
as §1

The test system of data set [3] is CFA rats (knee administrations of Complete Freund's Adjuvant on Wistar rats). Put plainly: inflammatory pain rat model CFA, von Frey filaments. The class given is in vivo. How it is done:
[…]
as §1

For data set [4], the system named is isolated rat atria and isolated rat ventricles. The data set is described as follows: ex vivo rat heart preparations. Particulars: up to 10 μM.

“Also recorded” adds a separate entry of the source.

T1 sequence (P17658 whole entry): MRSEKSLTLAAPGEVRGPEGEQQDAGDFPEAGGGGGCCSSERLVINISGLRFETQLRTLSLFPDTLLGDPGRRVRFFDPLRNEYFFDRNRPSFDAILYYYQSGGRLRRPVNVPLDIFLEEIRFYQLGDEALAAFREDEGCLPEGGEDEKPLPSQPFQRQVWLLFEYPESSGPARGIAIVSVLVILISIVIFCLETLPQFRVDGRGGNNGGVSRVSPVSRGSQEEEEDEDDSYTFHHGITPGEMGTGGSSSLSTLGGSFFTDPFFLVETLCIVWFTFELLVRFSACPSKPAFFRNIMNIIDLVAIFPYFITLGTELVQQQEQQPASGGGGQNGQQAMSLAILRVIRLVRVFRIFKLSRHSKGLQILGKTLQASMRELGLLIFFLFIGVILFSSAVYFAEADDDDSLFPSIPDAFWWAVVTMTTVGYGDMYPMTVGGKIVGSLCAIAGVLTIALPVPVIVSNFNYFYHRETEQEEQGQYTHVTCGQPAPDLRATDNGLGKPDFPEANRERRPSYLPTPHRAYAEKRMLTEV

Consider `C/C(=C\C1C/C(=C/CCc2ccoc2)C(=O)O1)CCCc1ccoc1` (centres unmarked) [nitenin], for which, at hKv1.6, the “lower sensitivity of hKv1.6 relative to Kv1.3” value is ~6 ×. For the same compound, in the data set with anesthetized Wistar rats, the “arrhythmia or pro-arrhythmic phenomena (ECG)” value was “neither induced arrhythmia or any pro-arrhythmic phenomena”; the “sinus rhythm and heart rate (ECG)” value is “did not change”. Further, in the data set with CIPN rats (paclitaxel), the “sensitivity to mechanical stimuli, both paws” value is given as “intense decrease of sensitivity to mechanical stimuli”. Moreover, in data set [1], the “lower sensitivity of slow currents of large diameter DRG neurons” value is listed as “around 10 times”. For the same compound, the “mechanical sensitivity at the whisker pad region (von Frey)” value in data set [2] is “reaching values not different to those obtained during baseline; also recorded: marked reduction of mechanical sensitivity”. The “sensitivity to mechanical stimuli (von Frey)” value in data set [3] (I.V. 1 μg/mL of blood, 3, 18 and 23 days after CFA) was “noticeable decrease of sensitivity to mechanical stimuli”. Further, the “mitigation effect of pain (score values)” value in data set [3] (intraperitoneal, 10 times the I.V. quantity, 23 days after CFA injection) is on record as “clear mitigation effect of pain with score values reaching control levels”. Moreover, the sinus heart rate entry in data set [4] (ex vivo) was “does not change”. Also, the atrial inotropy entry in data set [4] (isolated rat atria) is “does not change”. The “right ventricular (RV) inotropy” value in data set [4] (isolated rat ventricles) is “does not change”.
